Results: patent publication US20260007613A1, “LONG-ACTING LOW-TOXICITY NOVEL CATIONIC LIPID COMPOUNDS AND COMPOSITION THEREOF” (BEIJING YOUCAREKECHUANG PHARMACEUTICAL TECHNOLOGY CO., LTD., priority 2023, published 2026)

Key:
[1] = system: 293T cells; experiment: Fluorescent detection of Fluc-mRNA (cell transfection efficiency of LNP formulations); format: cell-based; conditions: for Relative light unit (RLU): LNP formulation of Fluc-mRNA, 96-well plate, 24 hours; for Multiples (YK-305): RLU of YK-305 / RLU of the lipid of the line; for Multiples (YK-310): RLU of YK-310 / RLU of the lipid of the line; for Multiples (YK-312): RLU of YK-312 / RLU of the lipid of the line; for Multiples (YK-318): RLU of YK-318 / RLU of the lipid of the line; for Multiples (YK-318) / Multiples (YK-319): Tables 5, 7, 11; for Multiples (YK-319): RLU of YK-319 / RLU of the lipid of the line; for Ratio relative to SM-102: RLU of the lipid / RLU of SM-102, times that of SM-102
Procedure: (§1) Cell recovery and passage: 293T cells were recovered, cultured in a culture dish, and passaged to the required number of cells.
(§2) Seeding plate: The cells in the culture dish were digested and counted. Cells were spread in a 96-well plate at 10,000 cells per well and in a 12-well plate at 150,000 cells per well. Cells were cultured overnight until the cells adhered to the wall.
(§3) Cell recovery and passage: the method was the same as in Example 3.
(§4) Seeding plate: the method was the same as in Example 3.
An LNP formulation containing […] of Fluc-mRNA (the carrier components of the LNP formulation were cationic lipid, neutral lipid, structured lipid and polymer-conjugated lipid with a molar ratio of 49:10:39.5:1.5, wherein the cationic lipid was listed in Table 1) was added to the cell culture medium of a 96-well plate, and further incubated for 24 hours. The corresponding reagent was added according to the instructions of the […] Luciferase Assay Kit, and the fluorescence expression intensity of each well was detected by an IVIS fluorescence detection system. This test verified the transfection efficiencies of LNP formulations in cells, see Tables 4-7 for specific test results.

[2] = Particle size and polydispersity index (PDI) of lipid nanoparticles by dynamic light scattering; format: physicochemical; conditions: LNP formulation prepared from the cationic lipid, 25° C.
Procedure: The particle size and polydispersity index (PDI) were determined by dynamic light scattering using Malvern laser particle size analyzer.
10 μL of the liposome solution was weighed, diluted to 1 mL with RNase-free deionized water, and added to the sample pool. Each sample was measured in triplicate. The measurement conditions were: […] scattering angle, and 25° C.

[3] = system: female BALB/C mice; experiment: Live imaging in mice: protein expression of Fluc-mRNA delivered by LNP formulations; format: in vivo
Procedure: In addition, the protein expression and duration of mRNA in mice delivered by the cationic lipid delivery carriers designed were also verified.
The LNP formulation containing […] Fluc-mRNA was injected intramuscularly into female BALB/C mice aged 4 to 6 weeks old and weighed 17 to 19 g, and the mice were intraperitoneally injected with fluorescent imaging substrate at specific time points after administration (6 h, 24 h, 48 h and 7 d), where the mice were free to move for 5 minutes, and then the average radiation intensity (corresponding to fluorescence expression intensity) of the protein expression of the mRNA carried by the LNP in the mice was detected by the IVIS Spectrum small animal live imaging device.

[4] = system: 293T cells; experiment: Cell survival rate determination (CCK-8); format: cell-based; conditions: LNP formulation of Fluc-mRNA, 24 hours, CCK-8
Procedure: as §1, §2, §3, §4
An LNP formulation containing […] of Fluc-mRNA (the carrier components of the LNP formulation were cationic lipid, neutral lipid, structured lipid and polymer-conjugated lipid with a molar ratio of 49:10:39.5:1.5, wherein the cationic lipid was listed in Table 1) and the formulation of Lipofectamine 3000 were added to the cell culture medium of a 96-well plate, and further cultivated for 24 hours. 10 μL of CCK-8 solution was then added to each well, and the culture plate was incubated in an incubator for 1 hour. The absorbance at 450 nm was measured by a microplate reader.
Cell survival rate can represent the toxicity of cationic lipids to cells. The higher the cell survival rate, the lower the toxicity to cells.

[5] = 6 h after intramuscular injection
[6] = 24 h after intramuscular injection
[7] = 48 h after intramuscular injection
[8] = 7 d after intramuscular injection

| Structure (SMILES) | Relative light unit (RLU) [1] | Multiples (YK-305) [1] | Multiples (YK-310) [1] | Multiples (YK-312) [1] | Multiples (YK-318) [1] | Multiples (YK-319) [1] | Ratio relative to SM-102 [1] | PDI (%) [2] | Particle size (nm) [2] | average radiation intensity [3, 5] | average radiation intensity [3, 6] | average radiation intensity [3, 7] | average radiation intensity [3, 8] | Cell survival rate (%) [4] | Cell survival rate (%) ([4]; listed as YK 303) |
| --- | --- | --- | --- | --- | --- | --- | --- | --- | --- | --- | --- | --- | --- | --- | --- |
| CCCCCCCCCCOC(=O)CCCN(CCO)CCCCCC(=O)OCC(CCCCCCCC)CCCCCCCC [YK-009, reference compound] | 5118942 RLU | 5.35 | 5.04 | 3.94 | 2.19 | 4.78 | 3.19 | 18.1% | 192 nm | 1004580 | 754120 | 110140 | 9984 | 72.55% | – |
| CCCCCCCCCCOC(=O)CCCN(CCCCCC(=O)OCC(CCCCCCCC)CCCCCCCC)C[C@H](O)CN(C)CCO [YK-301, (R)-2-octyldecyl-6-((4-(decyloxy)-4-oxobutyl)((2-hydroxy-3-(2-hydroxyethyl)(methyl)amino)propyl)amino)hexanoate] | 842452 RLU | 32.53 | 30.62 | 23.92 | 13.28 | 29.04 | – | 7.0% | 192 nm | – | – | – | – | 52.96% | – |
| CCCCCCCCCCOC(=O)CCCN(CCCCCC(=O)OCCC(CCCCCC)CCCCCC)C[C@H](O)CN(C)CCO [YK-302] | 27778 RLU | 936.71 | 928.69 | 725.34 | 402.84 | 880.83 | – | 13.4% | 186 nm | 14580 | 8956 | 4025 | 884 | 16.43% | – |
| CCCCCCCCCCCOC(=O)CCCCCN(CCCC(=O)OCCCC(CCCCCCCCCC)CCCCCCCCCC)C[C@H](O)CN(C)CCO [YK-303, (R)-undecyl-6-(4-(4-decyltetradecyloxy)-4-oxobutyl)((2-hydroxy-3-((2-hydroxyethyl)(methyl)amino)propyl)amino)hexanoate] | 626314 RLU | 43.76 | 41.19 | 32.17 | 17.87 | 39.07 | – | – | – | – | – | – | – | 82.18% | 63.32% |
| CCCCCCCCCCCOC(=O)CCCCCN(CCCCCC(=O)OCCCCCCCCCCC)C[C@H](O)CN(C)CCO [YK-304, (R)-bis(undecyl)-6,6′-((2-hydroxy-3-((2-hydroxyethyl)(methyl)amino)propyl)azanediyl)dihexanoate] | 20686 RLU | 1324.99 | 1247.08 | 974.01 | 540.95 | 1182.82 | – | 19.8% | 149 nm | – | – | – | – | 34.16% | – |
| CCCCCCC(CCCCCC)CCOC(=O)CCCCCN(CCCCCC(=O)OCCC(CCCCCC)CCCCCC)C[C@H](O)CN(C)CCO [YK-306, (R)-bis(3-hexylnonyl)-6,6′-((2-hydroxy-3-((2-hydroxyethyl)(methyl)amino)propyl)azanediyl)dihexanoate] | 2197174 RLU | 12.47 | 11.14 | 9.17 | 5.09 | 11.14 | – | 13.6% | 228 nm | – | – | – | – | 42.19% | – |
| CCCCCCCCCCC(CCCCCCCCCC)CCCOC(=O)CCCN(CCCC(=O)OCCCC(CCCCCCCCCC)CCCCCCCCCC)C[C@H](O)CN(C)CCO [YK-307] | 4557420 RLU | 6.01 | 5.66 | 4.42 | 2.46 | 5.37 | – | 32.2% | 210 nm | – | – | – | – | 61.14% | – |
| CCCCCCCCCCOC(=O)CCCN(CCCCCC(=O)OCC(CCCCCCCC)CCCCCCCC)C[C@H](O)CN(CC)CCO [YK-308] | 5036582 RLU | 5.44 | 5.12 | 4.00 | – | – | 3.14 | 13.4% | 211 nm | – | – | – | – | 70.99% | – |
| CCCCCCC(CCCCCC)CCOC(=O)CCCCCN(CCCCCC(=O)OCCC(CCCCCC)CCCCCC)C[C@H](O)CN(CC)CCO [YK-311] | 1963636 RLU | 13.96 | 13.14 | 10.26 | – | – | 1.22 | 31.1% | 209 nm | – | – | – | – | 70.06% | – |
| CCCCCCCCC(CCCCCCCC)OC(=O)CCCCCCCN(CCCCCCCC(=O)OC(CCCCCCCC)CCCCCCCC)C[C@H](O)CN(CC)CCO [YK-314] | 547434 RLU | 50.07 | 47.12 | 36.81 | – | – | 0.34 | 24.6% | 235 nm | – | – | – | – | 67.88% | – |
| CCCCCCCCCCC(CCCCCCCCCC)CCCOC(=O)CCCN(CCCC(=O)OCCCC(CCCCCCCCCC)CCCCCCCCCC)C[C@H](O)CN(CC)CCO [YK-315] | 1587188 RLU | 17.27 | 16.25 | 12.69 | – | – | 0.99 | 34.9% | 181 nm | – | – | – | – | 71.28% | – |
| CCCCCCCCC(CCCCCCCC)COC(=O)CCCCCN(CCCCCC(=O)OCC(CCCCCCCC)CCCCCCCC)C[C@H](O)CN(CCO)CCO [YK-316, (S)-bis(2-octyldecyl)-6,6′-(((3-(bis(2-hydroxyethyl)amino)-2-hydroxypropyl)azanediyl))dihexanoate] | 4810210 RLU | 5.70 | 5.36 | 4.19 | 2.33 | 5.09 | 3.00 | 17.5% | 188 nm | – | – | – | – | 70.53% | – |
| CCCCCCC(CCCCCC)CCOC(=O)CCCCCN(CCCCCC(=O)OCCC(CCCCCC)CCCCCC)C[C@H](O)CN(CCO)CCO [YK-317, (S)-Bis(3-hexylnonyl)-6,6′-((3-(bis(2-hydroxyethyl)amino)-2-hydroxypropyl)azanediyl)dihexanoate] | 3605054 RLU | 7.60 | 7.16 | 5.59 | 3.10 | 6.79 | 2.25 | 16.4% | 255 nm | – | – | – | – | 59.18% | – |
| CCCCCCCCC(CCCCCCCC)OC(=O)CCCCCCCN(CCCCCCCC(=O)OC(CCCCCCCC)CCCCCCCC)C[C@H](O)CN(CCO)CCO [YK-320, (S)-Bis(heptadecan-9-yl)-8,8′-((3-(bis(2-hydroxyethyl)amino)-2-hydroxypropyl)azanediyl)dicaprylate] | 2702966 RLU | 10.14 | 9.54 | 7.45 | 4.14 | 9.05 | 1.69 | 19.6% | 212 nm | – | – | – | – | 71.07% | – |
